Laboratory results as given in patent US20230167118A1, “DEGRADATION OF BRUTON'S TYROSINE KINASE (BTK) BY CONJUGATION OF BTK INIDBITORS WITH E3 LIGASE LIGAND AND METHODS OF USE” (BEIGENE, LTD., priority 2020, published 2023).

Tests used:
BTK = target: T1, BTK (Homo sapiens, UniProt Q06187); assay: Cell Degradation: BTK degradation in TMD-8 cells, HTRF assay; format: cell-based; conditions: 6 h treatment, IC50 (DC50) of BTK degradation
T1 construct: High control=Cell group with added DMSO and without compound, indicating microplate readings without BTK degradation; endogenous in cells; host or cells: TMD-8 cells
T1 sequence (Q06187 whole entry): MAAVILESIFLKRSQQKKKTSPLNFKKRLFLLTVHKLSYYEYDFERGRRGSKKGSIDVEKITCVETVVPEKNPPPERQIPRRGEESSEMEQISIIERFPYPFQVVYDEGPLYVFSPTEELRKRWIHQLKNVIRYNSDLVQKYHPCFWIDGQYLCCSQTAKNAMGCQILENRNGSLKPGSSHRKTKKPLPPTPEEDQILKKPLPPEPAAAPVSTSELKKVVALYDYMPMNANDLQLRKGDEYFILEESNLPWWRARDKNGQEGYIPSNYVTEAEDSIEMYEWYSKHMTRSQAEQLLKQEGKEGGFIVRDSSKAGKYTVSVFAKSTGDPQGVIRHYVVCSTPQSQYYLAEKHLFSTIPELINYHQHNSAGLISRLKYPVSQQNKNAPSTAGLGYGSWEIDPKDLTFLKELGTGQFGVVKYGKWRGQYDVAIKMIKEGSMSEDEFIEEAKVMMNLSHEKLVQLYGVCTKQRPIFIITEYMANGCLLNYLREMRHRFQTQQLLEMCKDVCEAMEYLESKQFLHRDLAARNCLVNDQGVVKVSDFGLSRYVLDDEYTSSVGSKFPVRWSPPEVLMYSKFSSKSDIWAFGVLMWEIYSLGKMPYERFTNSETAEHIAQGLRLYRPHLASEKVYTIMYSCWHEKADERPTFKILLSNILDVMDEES
Procedure, shortened: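 BTK levels read by HTRF (665 vs 620 nm) in lysates of TMD-8 cells after 6 h compound exposure (eight doses, 6-fold steps, 0.2% DMSO). Percent degradation relative to controls; four-parameter curve fitting gave DC50, with Dmax the top degradation.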

HEK-293 cells = assay: HEK-293 Cytotoxicity Assay (CellTiter-Glo); format: cell-based; conditions: Homo sapiens, HEK293, 72 h incubation, CellTiter-Glo luminescence
Procedure, shortened: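 Four-parameter fit of % inhibition gives IC50, from CellTiter-Glo luminescent viability read-out. Cells exposed for 72 h to an 8-point, 4-fold series at 0.2% DMSO.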

Structure (SMILES)	DC50 (BTK)	IC50 (HEK-293 cells)
Cc1cc(-c2ncnc3[nH]c(-c4ccc(N5CCN(CC6CCN(c7ccc(N8CCC(=O)NC8=O)c(C)c7)CC6)CC5)nc4)cc23)ccc1[C@@H](C)NC(=O)c1nc(C(C)(C)C)no1 [Example 58, (R)-3-(tert-butyl)-N-(1-(4-(6-(6-(4-((1-(4-(2,4-dioxotetrahydropyrimidin-1(2H)-yl)-3-methylphenyl)piperidin-4-yl)methyl)piperazin-1-yl)pyridin-3-yl)-7H-pyrrolo[2,3-d]pyrimidin-4-yl)-2-methylphenyl)ethyl)-1,2,4-oxadiazole-5-carboxamide]	1.5 nM	> 10000 nM
Cc1cc(-c2ncnc3[nH]c(-c4c(C)nn(C5CCN(CC6CCN(c7ccc(N8CCC(=O)NC8=O)cc7)CC6)CC5)c4C)cc23)ccc1[C@@H](C)NC(=O)c1nc(C(C)(C)C)no1 [Example 60, (R)-3-(tert-butyl)-N-(1-(4-(6-(1-(1-((1-(4-(2,4-dioxotetrahydropyrimidin-1(2H)-yl)phenyl)piperidin-4-yl)methyl)piperidin-4-yl)-3,5-dimethyl-1H-pyrazol-4-yl)-7H-pyrrolo[2,3-d]pyrimidin-4-yl)-2-methylphenyl)ethyl)-1,2,4-oxadiazole-5-carboxamide]	0.48 nM	> 10000 nM
Cc1cc(-c2ncnc3[nH]c(-c4c(C)nn(C5CCN(CC6CCN(c7ccc(N8CCC(=O)NC8=O)c(C)c7)CC6)CC5)c4C)cc23)ccc1[C@@H](C)NC(=O)c1nc(C(C)(C)C)no1 [Example 61, (R)-3-(tert-butyl)-N-(1-(4-(6-(1-(1-((1-(4-(2,4-dioxotetrahydropyrimidin-1(2H)-yl)-3-methylphenyl)piperidin-4-yl)methyl)piperidin-4-yl)-3,5-dimethyl-1H-pyrazol-4-yl)-7H-pyrrolo[2,3-d]pyrimidin-4-yl)-2-methylphenyl)ethyl)-1,2,4-oxadiazole-5-carboxamide]	0.52 nM	9000 nM
Cc1cc(-c2ncnc3[nH]c(-c4c(C)nn(C5CCN(CC6CCN(c7ccc(N8CCC(=O)NC8=O)cc7)CC6)CC5)c4C)cc23)ccc1[C@@H](C)NC(=O)c1noc(C(C)(C)C)n1 [Example 62, (R)-5-(tert-butyl)-N-(1-(4-(6-(1-(1-((1-(4-(2,4-dioxotetrahydropyrimidin-1(2H)-yl)phenyl)piperidin-4-yl)methyl)piperidin-4-yl)-3,5-dimethyl-1H-pyrazol-4-yl)-7H-pyrrolo[2,3-d]pyrimidin-4-yl)-2-methylphenyl)ethyl)-1,2,4-oxadiazole-3-carboxamide]	0.53 nM	> 10000 nM
Cc1cc(-c2ncnc3[nH]c(-c4ccc(N5CCN(CC6CCN(c7ccc(N8CCC(=O)NC8=O)c(C)c7)CC6)CC5)nc4)nc23)ccc1[C@@H](C)NC(=O)c1nc(C(C)(C)C)no1 [Example 65, (R)-3-(tert-butyl)-N-(1-(4-(8-(6-(4-((1-(4-(2,4-dioxotetrahydropyrimidin-1(2H)-yl)-3-methylphenyl)piperidin-4-yl)methyl)piperazin-1-yl)pyridin-3-yl)-9H-purin-6-yl)-2-methylphenyl)ethyl)-1,2,4-oxadiazole-5-carboxamide]	0.6 nM	> 10000 nM
Cc1cc(-c2ncnc3[nH]c(-c4ccc(N5CCN(CC6CCN(c7ccc(N8CCC(=O)NC8=O)c(C)c7)CC6)CC5)cc4)nc23)ccc1[C@@H](C)NC(=O)c1nc(C(C)(C)C)no1 [Example 67, (R)-3-(tert-butyl)-N-(1-(4-(8-(4-(4-((1-(4-(2,4-dioxotetrahydropyrimidin-1(2H)-yl)-3-methylphenyl)piperidin-4-yl)methyl)piperazin-1-yl)phenyl)-9H-purin-6-yl)-2-methylphenyl)ethyl)-1,2,4-oxadiazole-5-carboxamide]	0.69 nM	> 10000 nM
Cc1cc(-c2ncnc3[nH]c(-c4ccc(N5CCN(CC6CCN(c7ccc(N8CCC(=O)NC8=O)cc7)CC6)CC5)cc4)nc23)ccc1[C@@H](C)NC(=O)c1noc(C(C)(C)C)n1 [Example 68, (R)-5-(tert-butyl)-N-(1-(4-(8-(4-(4-((1-(4-(2,4-dioxotetrahydropyrimidin-1(2H)-yl)phenyl)piperidin-4-yl)methyl)piperazin-1-yl)phenyl)-9H-purin-6-yl)-2-methylphenyl)ethyl)-1,2,4-oxadiazole-3-carboxamide]	1.08 nM	> 10000 nM
Cc1cc(-c2ncnc3[nH]c(-c4ccc(N5CCN(CC6CCN(c7ccc(N8CCC(=O)NC8=O)c(C)c7)CC6)CC5)nc4)nc23)ccc1[C@@H](C)NC(=O)c1noc(C(C)(C)C)n1 [Example 71, (R)-5-(tert-butyl)-N-(1-(4-(8-(6-(4-((1-(4-(2,4-dioxotetrahydropyrimidin-1(2H)-yl)-3-methylphenyl)piperidin-4-yl)methyl)piperazin-1-yl)pyridin-3-yl)-9H-purin-6-yl)-2-methylphenyl)ethyl)-1,2,4-oxadiazole-3-carboxamide]	0.21 nM	> 10000 nM
Cc1cc(-c2ncnc3[nH]c(-c4ccc(N5CCN(CC6CCN(c7ccc(N8CCC(=O)NC8=O)c(C)c7)CC6)CC5)cc4)nc23)ccc1[C@@H](C)NC(=O)c1noc(C(C)(C)C)n1 [Example 73, (R)-5-(tert-butyl)-N-(1-(4-(8-(4-(4-((1-(4-(2,4-dioxotetrahydropyrimidin-1(2H)-yl)-3-methylphenyl)piperidin-4-yl)methyl)piperazin-1-yl)phenyl)-9H-purin-6-yl)-2-methylphenyl)ethyl)-1,2,4-oxadiazole-3-carboxamide]	1.1 nM	> 10000 nM
C[C@@H](NC(=O)c1nc(C(C)(C)C)no1)c1ccc(-c2ncnc3[nH]c(-c4ccc(N5CCN(CC6CCN(c7ccc(N8CCC(=O)NC8=O)cc7)CC6)CC5)cc4)cc23)cc1CO [Example 74]	0.4 nM	> 10000 nM
Cc1c([C@@H](C)NC(=O)c2nc(C(C)(C)C)no2)ccc(-c2ncnc3[nH]c(-c4ccc(N5CCN(CC6CCN(c7ccc(N8CCC(=O)NC8=O)cc7)CC6)CC5)cc4)cc23)c1F [Example 78, (R)-3-(tert-butyl)-N-(1-(4-(6-(4-(4-((1-(4-(2,4-dioxotetrahydropyrimidin-1(2H)-yl)phenyl)piperidin-4-yl)methyl)piperazin-1-yl)phenyl)-7H-pyrrolo[2,3-d]pyrimidin-4-yl)-3-fluoro-2-methylphenyl)ethyl)-1,2,4-oxadiazole-5-carboxamide]	0.88 nM	> 10000 nM
Cc1cc(-c2ncnc3[nH]c(-c4ccc(N5CCN(CC6CCN(c7ccc(N8CCC(=O)NC8=O)cc7)CC6)CC5)cc4)cc23)c(F)cc1[C@@H](C)NC(=O)c1nc(C(C)(C)C)no1 [Example 79, (R)-3-(tert-butyl)-N-(1-(4-(6-(4-(4-((1-(4-(2,4-dioxotetrahydropyrimidin-1(2H)-yl)phenyl)piperidin-4-yl)methyl)piperazin-1-yl)phenyl)-7H-pyrrolo[2,3-d]pyrimidin-4-yl)-5-fluoro-2-methylphenyl)ethyl)-1,2,4-oxadiazole-5-carboxamide]	1.5 nM	> 10000 nM
C[C@@H](NC(=O)c1nc(C(C)(C)C)no1)c1ccc(-c2ncnc3[nH]c(-c4ccc(N5CCN(CC6CCN(c7ccc(N8CCC(=O)NC8=O)cc7)CC6)C[C@@H]5C)nc4)cc23)cc1F [Example 80, 3-(tert-butyl)-N-((R)-1-(4-(6-(6-((S)-4-((1-(4-(2,4-dioxotetrahydropyrimidin-1(2H)-yl)phenyl)piperidin-4-yl)methyl)-2-methylpiperazin-1-yl)pyridin-3-yl)-7H-pyrrolo[2,3-d]pyrimidin-4-yl)-2-fluorophenyl)ethyl)-1,2,4-oxadiazole-5-carboxamide]	4.3 nM	> 10000 nM
Cc1cc(-c2ncnc3[nH]c(-c4ccc(N5CCN(CC6CCN(c7ccc(N8CCC(=O)NC8=O)cc7)CC6)CC5)cc4)cc23)ccc1[C@@H](C)NC(=O)c1noc(C2(C)CC2)n1 [Example 90, (R)-N-(1-(4-(6-(4-(4-((1-(4-(2,4-dioxotetrahydropyrimidin-1(2H)-yl)phenyl)piperidin-4-yl)methyl)piperazin-1-yl)phenyl)-7H-pyrrolo[2,3-d]pyrimidin-4-yl)-2-methylphenyl)ethyl)-5-(1-methylcyclopropyl)-1,2,4-oxadiazole-3-carboxamide]	1.5 nM	> 10000 nM
Cc1cc(-c2ncnc3[nH]c(-c4ccc(N5CCN(CC6CCN(c7ccc(N8CCC(=O)NC8=O)cc7)CC6)CC5)nc4)cc23)ccc1[C@@H](C)NC(=O)c1noc(C(C)(C)C)n1 [Example 104, (R)-5-(tert-butyl)-N-(1-(4-(6-(6-(4-((1-(4-(2,4-dioxotetrahydropyrimidin-1(2H)-yl)phenyl)piperidin-4-yl)methyl)piperazin-1-yl)pyridin-3-yl)-7H-pyrrolo[2,3-d]pyrimidin-4-yl)-2-methylphenyl)ethyl)-1,2,4-oxadiazole-3-carboxamide]	0.6 nM	> 10000 nM
Cc1cc(-c2ncnc3[nH]c(-c4ccc(N5CCN(CC6CCN(c7ccc(N8CCC(=O)NC8=O)cc7)CC6)C[C@H]5C)nc4)cc23)ccc1[C@@H](C)NC(=O)c1nc(C(C)(C)C)no1 [Example 105, 3-(tert-butyl)-N-((R)-1-(4-(6-(6-((R)-4-((1-(4-(2,4-dioxotetrahydropyrimidin-1(2H)-yl)phenyl)piperidin-4-yl)methyl)-2-methylpiperazin-1-yl)pyridin-3-yl)-7H-pyrrolo[2,3-d]pyrimidin-4-yl)-2-methylphenyl)ethyl)-1,2,4-oxadiazole-5-carboxamide]	3 nM	> 10000 nM
